Like-named read-outs stand apart in the source and are kept apart here. Numbered stars: 1 amine (or outer) side, 2 acyl side, 3 side chain; on linkers, the order of the positions; unused ones are H or OH. Bridge positions count the residues as written; N and C are the ends. Square brackets hold non-standard residues; d marks the D form. Ends that are not written are not given here. Peptide text beside a SMILES is read from it. * marks the point of attachment. X1 = COc1ccc(CN([C@@H](C)C(=O)[*:2])[*:1])cc1N[*:3]; X3 = COc1ccc(CO)cc1NC(=O)C*; X2 = O=C(C[*:2])[*:1]
Experiments:
streptavidin [1] = target: T1, streptavidin (Streptomyces avidinii, UniProt P22629); test: HABA competition binding assay (competitive ligand-binding analysis); details: for Kd: read-out: Kd,app
Excerpt: To pinpoint the binding mode of SAV_1–3 variants, we first synthesized the linear precursors and then prepared their modified and cyclized versions (Figure S13). […] To further elucidate the role of the free aldehyde for binding, we additionally prepared SAV_1–3 peptides that were modified with cyclization units bearing an alcohol moiety instead (Figures 6b and S13). […]
In vitro affinity measurements: To determine the affinity of the selected peptides for Streptavidin, a competitive binding experiment was performed similarly to previously described literature procedures.[7] In brief, for the competitive binding experiment, increasing amounts of peptide (final concentration 0.01 – 500 μM in 12.5% ACN + 0.1% TFA in PBS phosphate buffered saline (PBS, 137 mM NaCl, 2.7 mM KCl, 10 mM Na2HPO4, 2 mM […]
Streptavidin monomer (final concentration 1.5 mM/ 40 µM (SAV_1), 33 µM (SAV_2), 32 µM (SAV_3)). The reactions were allowed to reach equilibrium at room temperature (60 min.) and […]
IC50 values were obtained by fitting the average of three measurements to equation 1:
A = A + A500nm,max − A500nm,min (1) […]
where, A500nm is the measured absorbance at unbound peptide concentration, [L], and H is the Hill coefficient (H = 1 assumed for streptavidin-binding peptides). A500nm,min corresponds to the value measured in presence of 1 mM biotin and A500nm,max corresponds to absorbance values measured in absence of the peptide.
The Kd values for SAV_1_mod, SAV_1_cycl, and SAV_2_mod, SAV_1S_mod, and SAV_1S_cycl were obtained from their respective IC50 values using equation 2: […]

streptavidin [2] = target: T1, streptavidin; test: Biopanning of phages displaying SAV_1-3 against streptavidin (recovery rates from phage titers); type: binding; details: for recovery rate / retention after biopanning against streptavidin (in words): phages subjected to cyclization conditions, compared with linear and modified
Excerpt: To independently verify that our strategy selects peptide binders, we first produced phages displaying SAV_1–3. Next, we performed the modification and cyclization reactions as described previously and determined phage titers before and after biopanning against streptavidin for phages featuring the linear precursor, the modified and cyclized peptides (Figure S12, see the Supporting Information for details). Consistent with the selection of peptide binders upon addition of our bifunctional cyclization units, the recovery rates for linear precursors were the lowest for all three peptides (Figure 6A). […] Featuring a reactive aldehyde moiety, this apparently higher affinity of the modified analogue of SAV_2 could be the result of the transient formation of an iminium ion via condensation with either the N-terminal amine or a lysine side chain of streptavidin.
Production of SAV_1-3 displaying bacteriophages: To validate the selection of cyclic peptide binders over their linear, and modified counterparts, phages displaying the peptide sequences of the […] most enriched hits SAV_1, SAV_2 and SAV_3 were panned against streptavidin either in linear, modified or cyclic peptide form. Phage titers pre- and post-streptavidin panning were determined and compared between all the samples.
In brief, 700 μL of densely grown E. coli TG1 overnight cultures harboring the […]
-fd plasmid (SAV_1), […]-fd plasmid (SAV_2) and
-fd plasmid (SAV_3) respectively, were used to inoculate 500 mL 2xYT-medium containing 30 μg/mL chloramphenicol. After incubation overnight (30 °C at 190 rpm) phage particles were purified and all cysteines were reduced with TCEP as described in Section
9. At this point the phage samples were split into 3 fractions of 2.5 mL. One sample was stored at 4 °C as ‘linear phage’ sample, the other two samples were modified with scaffold 3 (SAV_1 and SAV_2) or scaffold 4 (SAV_3) and purified as described in Section 9. […] Phage titers of these samples were determined ( Figure S12A) and all samples were diluted to approximately […] colony forming units using reduction buffer. […]

T1 sequence (P22629 25-183): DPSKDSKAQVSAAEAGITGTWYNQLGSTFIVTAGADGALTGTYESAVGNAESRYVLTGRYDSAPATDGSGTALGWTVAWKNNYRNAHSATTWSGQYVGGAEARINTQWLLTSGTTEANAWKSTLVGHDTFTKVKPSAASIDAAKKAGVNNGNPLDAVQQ

Molecule: AWWTNDFCA-NH2 [SAV_1S]
- Kd (streptavidin [1]; aldehyde-modified peptide (Figure 6b, column 3), >10 μM given where no saturation): 5160 ± 590 nM
- Kd (streptavidin [1]; cyclic peptide (Figure 6b, column 4), >10 μM given where no saturation): 164 ± 78 nM
- Kd (streptavidin [1]; linear precursor peptide (Figure 6b, column 1), >10 μM given where no saturation): > 10000 nM

Molecule: COc1ccc(CO)cc1NC(=O)CSC[C@H](NC(=O)[C@H](C)NC(=O)[C@@H]1CSCC(=O)Nc2cc(ccc2OC)CN[C@@H](C)C(=O)N[C@@H](Cc2c[nH]c3ccccc23)C(=O)N[C@@H](Cc2c[nH]c3ccccc23)C(=O)N[C@@H]([C@@H](C)O)C(=O)N[C@@H](CC(N)=O)C(=O)N[C@@H](CC(=O)O)C(=O)N[C@@H](Cc2ccccc2)C(=O)N1)C(=O)N[C@@H](C)C(N)=O [cyclic SAV_1] (H-[X1]WWTNDFCAC(X3)A-NH2; linker 1-8 via X2)
- factor/fold advantage in Kd,app of cyclic peptide over aldehyde-modified peptide (streptavidin [1]; cyclic vs aldehyde-modified form of the same sequence): ~20

Molecule: C[C@H](N)C(=O)N[C@@H](Cc1c[nH]c2ccccc12)C(=O)N[C@@H](Cc1c[nH]c2ccccc12)C(=O)N[C@@H](CCC(=O)O)C(=O)N[C@@H](CC(=O)O)C(=O)N[C@@H](CCCNC(=N)N)C(=O)NCC(=O)N1CCC[C@H]1C(=O)N1CCC[C@H]1C(=O)N[C@@H](CS)C(=O)N[C@@H](C)C(N)=O [SAV_2]
- affinity for streptavidin in the competition assay (in words) (streptavidin [1]; form of the peptide as worded at the place): the cyclic peptide did not display any affinity
- recovery rate after biopanning against streptavidin (in words) (streptavidin [2]; phages with modified (aldehyde) peptide, compared with linear and cyclized): highest recovery rates

Molecule: CSCC[C@H](NC(=O)CNC(=O)[C@@H](NC(=O)[C@H](CC(C)C)NC(=O)CNC(=O)[C@@H](NC(=O)[C@H](CC(N)=O)NC(=O)[C@H](CCCNC(=N)N)NC(=O)[C@H](C)N)C(C)C)C(C)C)C(=O)N[C@@H](CS)C(=O)N[C@@H](C)C(N)=O [SAV_3]
- recovery rate / retention after biopanning against streptavidin (in words) (streptavidin [2]): highest levels of retention

Molecule: C[C@H](N)C(=O)N[C@@H](Cc1c[nH]c2ccccc12)C(=O)N[C@@H](Cc1c[nH]c2ccccc12)C(=O)N[C@H](C(=O)N[C@@H](CC(N)=O)C(=O)N[C@@H](CC(=O)O)C(=O)N[C@@H](Cc1ccccc1)C(=O)N[C@@H](CS)C(=O)N[C@@H](C)C(=O)N[C@@H](CS)C(=O)N[C@@H](C)C(N)=O)[C@@H](C)O [SAV_1]
- recovery rate / retention after biopanning against streptavidin (in words) (streptavidin [2]): highest levels of retention

Molecule: COc1ccc2cc1NC(=O)CSC[C@@H](C(=O)N[C@@H](C)C(N)=O)NC(=O)[C@H](Cc1ccccc1)NC(=O)[C@H](CC(=O)O)NC(=O)[C@H](CC(N)=O)NC(=O)[C@H]([C@@H](C)O)NC(=O)[C@H](Cc1c[nH]c3ccccc13)NC(=O)[C@H](Cc1c[nH]c3ccccc13)NC(=O)[C@H](C)NC2 [cyclic SAV_1S] (H-[X1]WWTNDFCA-NH2; linker 1-8 via X2)
- Kd (streptavidin [1]; cyclic peptide): 164 ± 78 nM
